Experimental data: patent publication US20260053932A1, “COMPOUNDS AND METHODS FOR THE TARGETED DEGRADATION OF ANDROGEN RECEPTOR AND ASSOCIATED METHODS OF USE” (Arvinas Operations, Inc., priority 2020, published 2026)
Read-outs that look alike come from different tables or passages of the source.

Tested on: androgen receptor (AR) in LNCaP and/or VCaP cells
Assay: Androgen Receptor ELISA assay (AR degradation)
Format: cell-based
Procedure, shortened: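 VCaP cells grown ≥3 days, then treated 5 h with compound in media containing 1 nM R1881 (10× stock). Cells lysed and AR quantified by sandwich ELISA (mouse AR detection Ab, HRP anti-mouse, TMB). DC50 and Dmax derived from AR degradation.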

[1] = degradation of AR ELISA in LNCaP and/or VCaP cells, Table 2C, read-out: DC50 Code*

DC50 [1] [nM] | DC50 (LNCaP and/or VCaP cells, 5 hours incubation, media with R1881, read-out: DC50 Code* (degradation of AR ELISA)) [nM] | Structure (SMILES)
> 100 |  | CC1(C)[C@H](NC(=O)c2ccc(N3CCC(CN4CCN(c5ccc6c(c5)C(=O)N([C@]5(C#N)CCC(=O)NC5=O)C6)CC4)CC3)cc2)C(C)(C)[C@H]1Oc1ccc(C#N)c(Cl)c1 [compound 156, N-((1r,3r)-3-(3-chloro-4-cyanophenoxy)-2,2,4,4-tetramethylcyclobutyl)-4-(4-((4-(2-((S)-3-cyano-2,6-dioxopiperidin-3-yl)-3-oxoisoindolin-5-yl)piperazin-1-yl)methyl)piperidin-1-yl)benzamide]
 | 1 to 10 | COc1cc(O[C@H]2C[C@H](N(CC3CCN(c4ncc(C(=O)NC5CC6(C5)CC(Oc5cc(C)c(C#N)c(C)c5)C6)cn4)CC3)C(C)C)C2)cc2c1C(=O)N(C1CCC(=O)NC1=O)C2=O (stereo partly shown) [Compound 1, N-(6-(4-cyano-3,5-dimethylphenoxy)spiro [3.3]heptan-2-yl)-2-(4-((((1r,3r)-3-((2-(2,6-dioxopiperidin-3-yl)-7-methoxy-1,3-dioxoisoindolin-5-yl)oxy)cyclobutyl) (isopropyl)amino)methyl)piperidin-1-yl)pyrimidine-5-carboxamide]
1 to 10 |  | Cc1cc(O[C@H]2C(C)(C)[C@H](NC(=O)c3cnc(N4CC(CCN5CCC(Oc6ccc7c(c6)C(=O)N(C6CCC(=O)NC6=O)C7=O)CC5)C4)nc3)C2(C)C)cc(C)c1C#N (stereo partly shown) [compound 133, N-((1r,3r)-3-(4-cyano-3,5-dimethylphenoxy)-2,2,4,4-tetramethylcyclobutyl)-2-(3-(2-(4-((2-(2,6-dioxopiperidin-3-yl)-1,3-dioxoisoindolin-5-yl)oxy)piperidin-1-yl)ethyl)azetidin-1-yl)pyrimidine-5-carboxamide]
1 to 10 |  | Cc1cc(O[C@H]2C(C)(C)[C@H](NC(=O)c3cnc(N4CC(CN(C(C)C)[C@H]5C[C@H](Oc6ccc7c(c6)C(=O)N(C6CCC(=O)NC6=O)C7=O)C5)C4)cn3)C2(C)C)cc(C)c1C#N (stereo partly shown) [compound 131, N-((1r,3r)-3-(4-cyano-3,5-dimethylphenoxy)-2,2,4,4-tetramethylcyclobutyl)-5-(3-((((1r,3r)-3-((2-(2,6-dioxopiperidin-3-yl)-1,3-dioxoisoindolin-5-yl)oxy)cyclobutyl) (isopropyl)amino)methyl)azetidin-1-yl)pyrazine-2-carboxamide]
